Experimental data reported in patent US20240000075A1, “FUNGICIDAL ARYL AMIDINES” (CORTEVA AGRISCIENCE LLC, priority 2020, published 2024).
Where two headings read alike, the source gives them in different places.

Legend:
Zymoseptoria tritici = experiment: Septoria leaf blotch of wheat, whole-plant fungicidal activity (SEPTTR); format: in vivo, Zymoseptoria tritici on wheat plants (variety 'Yuma'); conditions: read-out: % Disease Control Rating SEPTTR
Outline: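 Compounds in acetone, diluted with nine volumes of water containing 110 ppm Triton X-100, were sprayed to run-off on 'Yuma' wheat seedlings at full first-leaf emergence. Spore inoculation was 3 days before (3DC, curative) or 1 day after (1DP, protectant) treatment, then 3 days at 100% RH and greenhouse. First-leaf disease severity (0–100%) was scored relative to untreated plants as percent control.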

Puccinia triticina = experiment: Wheat brown rust, whole-plant fungicidal activity (PUCCRT); format: in vivo, Puccinia triticina on wheat plants (variety 'Yuma'); conditions: 24 h, 1DP (1 day protectant), read-out: % Disease Control Rating PUCCRT
Outline: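 Wheat 'Yuma' seedlings at first-leaf stage sprayed to run-off with compound from acetone stock diluted in nine volumes water containing 110 ppm Triton X-100, then inoculated with Puccinia triticina spores. Held overnight in dark dew room at 100% RH, then greenhouse for disease development.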

Cochliobolus sativus = experiment: Spot blotch of barley, whole-plant fungicidal activity (COCHSA); format: in vivo; conditions: 1DP (1 day protectant), 200 ppm
Protocol: Technical grades of materials were dissolved in acetone, which were then mixed with nine volumes of water (H2O) containing 110 ppm Triton X-100. The fungicide solutions were applied onto wheat seedlings using an automated booth sprayer to run-off. All sprayed plants were allowed to air dry prior to further handling. All fungicides were evaluated using the aforementioned method for their activity vs. all target diseases, unless stated otherwise. Example E. Evaluation of Fungicidal Activity: Spot Blotch of Barley (Cochliobolus sativus Bayer Code COCHSA) Barley seedlings (variety ‘Harrington’) were propagated in soil-less potting mix, with each pot having 8 to 12 plants, and used for testing when the first leaf was fully emerged. Test plants were inoculated with a spore suspension of Cochliobolus sativus 24 h after fungicide treatments. After inoculation the plants were kept in […] for two days to permit spores to germinate and infect the leaf. The plants were then transferred to a greenhouse for disease to develop. Fungicide formulation, application and disease assessment followed the procedures as described in Example A.

Rhynchosporium commune = experiment: Leaf blotch of barley, whole-plant fungicidal activity (RHYNSE); format: in vivo; conditions: 24 h, 1DP (1 day protectant), read-out: % Disease Control Rating RHYNSE
Outline: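 Barley cv. 'Harrington' at full first-leaf emergence (7-10 seedlings per pot) was sprayed to run-off with compound in acetone plus nine volumes of water containing 110 ppm Triton X-100, air-dried, then inoculated with spore suspension. Plants spent two days in a dark dew room at 100% RH, then moved to greenhouse for disease development.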

Phakopsora pachyrhizi = experiment: Asian soybean rust, whole-plant fungicidal activity (PHAKPA); format: in vivo; conditions: read-out: % Disease Control Rating PHAKPA
Outline: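 Ten-day-old 'Williams 82' soybean seedlings sprayed to run-off with compound in acetone/water (1:9, 0.011% Tween-20), air-dried, then inoculated; 24 h dark dew room at 100% RH, then growth room. Disease severity scored 0–100% on sprayed leaves; percent control relative to untreated plants.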

SMILES | pest or weed control at 200 ppm (Zymoseptoria tritici; 24 h, 1DP (1 day protectant)) [%] | pest or weed control at 200 ppm (Zymoseptoria tritici; 72 h, 3DC (3 day curative)) [%] | pest or weed control at 200 ppm (Puccinia triticina) [%] | % Disease Control Rating COCHSA (Cochliobolus sativus) | pest or weed control at 200 ppm (Rhynchosporium commune) [%] | pest or weed control at 200 ppm (Phakopsora pachyrhizi; 24 h, 1DP (1 day protectant)) [%] | pest or weed control at 200 ppm (Phakopsora pachyrhizi; 72 h, 3DC (3 day curative)) [%] | melting point [°C]
CCN(C)/C=N/c1cc(C)c(C(=O)CC2CCCC2)cc1C [Compound 4] | > 85 | 50 to 85 | > 85 | A (>85%) | > 85 | > 85 | > 85 | –
CCN(C)/C=N/c1cc(C)c(C(=O)Cc2ccc(C)cc2)cc1C [Compound 9] | < 20 | < 20 | > 85 | A (>85%) | > 85 | > 85 | > 85 | 90 to 93
